Measured values from ChEMBL document CHEMBL3885881, “DrugMatrix”.

Organism: Rattus norvegicus
Experiment: DrugMatrix - Regimen: Daily Repeat
Format: toxicity, organism-based, Sprague-Dawley
Design: regimen Daily Repeat, gender Male, age 6-8 weeks
Settings: in vivo, po, 100 mg/kg, route oral GAVAGE, dose level High, vehicle .5 % CMC; for ABSOLUTE BASOPHIL / ABSOLUTE EOSINOPHIL / ABSOLUTE LYMPHOCYTE / ABSOLUTE MONOCYTE / ABSOLUTE SEGMENTED NEUTROPHIL / BASOPHIL / EOSINOPHIL / ERYTHROCYTE COUNT / HEMATOCRIT / HEMOGLOBIN / LEUKOCYTE COUNT / LYMPHOCYTE / MEAN CORPUSCULAR HEMOGLOBIN / MEAN CORPUSCULAR HEMOGLOBIN CONCENTRATION / MEAN CORPUSCULAR VOLUME / MONOCYTE / NEUTROPHIL / NUCLEATED RED BLOOD CELLS / PLATELET COUNT: tissue Blood; for ALANINE AMINOTRANSFERASE / ALBUMIN / ALKALINE PHOSPHATASE / ASPARTATE AMINOTRANSFERASE / BLOOD UREA NITROGEN / CARBON DIOXIDE / CHLORIDE / CHOLESTEROL / CREATINE PHOSPHOKINASE / CREATININE / GLUCOSE / LACTATE DEHYDROGENASE / LIPASE / PHOSPHORUS / POTASSIUM / SODIUM / TOTAL BILIRUBIN / TOTAL PROTEIN / URIC ACID: tissue Plasma

Question: With `CN1[C@@H]2CC[C@H]1C[C@@H](OC(=O)c1c[nH]c3ccccc13)C2` [TROPISETRON] as the molecule, how does the “ABSOLUTE BASOPHIL” value (72 h, time 3 day) read?
Answer: 0 CELLS/uL

Question: What about the “ABSOLUTE EOSINOPHIL” value (72 h, time 3 day) of the same molecule?
Answer: 0 CELLS/uL

Question: And the “ABSOLUTE LYMPHOCYTE” value (72 h, time 3 day)?
Answer: 8279 CELLS/uL

Question: What about the “ABSOLUTE MONOCYTE” value (72 h, time 3 day) of the same molecule?
Answer: 180 CELLS/uL

Question: What about the “ABSOLUTE SEGMENTED NEUTROPHIL” value (72 h, time 3 day) of the same molecule?
Answer: 707.67 CELLS/uL

Question: What about the BASOPHIL (72 h, time 3 day) of the same molecule?
Answer: 0%

Question: And the EOSINOPHIL (72 h, time 3 day)?
Answer: 0%

Question: And the “ERYTHROCYTE COUNT” value (72 h, time 3 day)?
Answer: 5.38 x10E6/uL

Question: And the HEMATOCRIT (72 h, time 3 day)?
Answer: 33.5%

Question: And the HEMOGLOBIN (72 h, time 3 day)?
Answer: 12.6 G/DL

Question: And the “LEUKOCYTE COUNT” value (72 h, time 3 day)?
Answer: 9.17 x10E3/uL

Question: What about the LYMPHOCYTE (72 h, time 3 day) of the same molecule?
Answer: 90.33%

Question: What about the “MEAN CORPUSCULAR HEMOGLOBIN” value (72 h, time 3 day) of the same molecule?
Answer: 23.47 pg

Question: And the “MEAN CORPUSCULAR HEMOGLOBIN CONCENTRATION” value (72 h, time 3 day)?
Answer: 37.6 G/DL

Question: And the “MEAN CORPUSCULAR VOLUME” value (72 h, time 3 day)?
Answer: 62.3 fL

Question: And the MONOCYTE (72 h, time 3 day)?
Answer: 2%

Question: And the NEUTROPHIL (72 h, time 3 day)?
Answer: 7.67%

Question: And the “NUCLEATED RED BLOOD CELLS” value (72 h, time 3 day)?
Answer: 0 /100WBC

Question: And the “PLATELET COUNT” value (72 h, time 3 day)?
Answer: 1392.33 x10E3/uL

Question: And the “ALANINE AMINOTRANSFERASE” value (72 h, time 3 day)?
Answer: 63.67 u/L

Question: And the ALBUMIN (72 h, time 3 day)?
Answer: 4.3 G/DL

Question: And the “ALKALINE PHOSPHATASE” value (72 h, time 3 day)?
Answer: 429.67 u/L

Question: What about the “ASPARTATE AMINOTRANSFERASE” value (72 h, time 3 day) of the same molecule?
Answer: 69.33 u/L

Question: And the “BLOOD UREA NITROGEN” value (72 h, time 3 day)?
Answer: 14.33 mg/dL

Question: What about the “CARBON DIOXIDE” value (72 h, time 3 day) of the same molecule?
Answer: 27.67 mmol/L

Question: And the CHLORIDE (72 h, time 3 day)?
Answer: 105.67 MEQ/L

Question: What about the CHOLESTEROL (72 h, time 3 day) of the same molecule?
Answer: 54.33 mg/dL

Question: And the “CREATINE PHOSPHOKINASE” value (72 h, time 3 day)?
Answer: 189.33 u/L

Question: And the CREATININE (72 h, time 3 day)?
Answer: 0.3 mg/dL

Question: And the GLUCOSE (72 h, time 3 day)?
Answer: 155.33 mg/dL

Question: What about the “LACTATE DEHYDROGENASE” value (72 h, time 3 day) of the same molecule?
Answer: 122.67 u/L

Question: What about the LIPASE (72 h, time 3 day) of the same molecule?
Answer: 8.33 u/L

Question: And the PHOSPHORUS (72 h, time 3 day)?
Answer: 13.03 mg/dL

Question: What about the POTASSIUM (72 h, time 3 day) of the same molecule?
Answer: 5.65 MEQ/L

Question: And the SODIUM (72 h, time 3 day)?
Answer: 149.97 MEQ/L

Question: And the “TOTAL BILIRUBIN” value (72 h, time 3 day)?
Answer: 0.2 mg/dL

Question: What about the “TOTAL PROTEIN” value (72 h, time 3 day) of the same molecule?
Answer: 5.87 G/DL

Question: And the “URIC ACID” value (72 h, time 3 day)?
Answer: 1.2 mg/dL

Question: And the “ABSOLUTE BASOPHIL” value (120 h, time 5 day)?
Answer: 0 CELLS/uL

Question: And the “ABSOLUTE EOSINOPHIL” value (120 h, time 5 day)?
Answer: 100.67 CELLS/uL

Question: And the “ABSOLUTE LYMPHOCYTE” value (120 h, time 5 day)?
Answer: 14254 CELLS/uL

Question: And the “ABSOLUTE MONOCYTE” value (120 h, time 5 day)?
Answer: 107 CELLS/uL

Question: What about the “ABSOLUTE SEGMENTED NEUTROPHIL” value (120 h, time 5 day) of the same molecule?
Answer: 1271.67 CELLS/uL

Question: And the BASOPHIL (120 h, time 5 day)?
Answer: 0%

Question: What about the EOSINOPHIL (120 h, time 5 day) of the same molecule?
Answer: 0.67%

Question: And the “ERYTHROCYTE COUNT” value (120 h, time 5 day)?
Answer: 5.79 x10E6/uL

Question: And the HEMATOCRIT (120 h, time 5 day)?
Answer: 36.33%

Question: What about the HEMOGLOBIN (120 h, time 5 day) of the same molecule?
Answer: 13.6 G/DL

Question: What about the “LEUKOCYTE COUNT” value (120 h, time 5 day) of the same molecule?
Answer: 15.73 x10E3/uL

Question: What about the LYMPHOCYTE (120 h, time 5 day) of the same molecule?
Answer: 90.67%

Question: And the “MEAN CORPUSCULAR HEMOGLOBIN” value (120 h, time 5 day)?
Answer: 23.5 pg

Question: What about the “MEAN CORPUSCULAR HEMOGLOBIN CONCENTRATION” value (120 h, time 5 day) of the same molecule?
Answer: 37.43 G/DL

Question: What about the “MEAN CORPUSCULAR VOLUME” value (120 h, time 5 day) of the same molecule?
Answer: 62.73 fL

Question: And the MONOCYTE (120 h, time 5 day)?
Answer: 0.67%

Question: What about the NEUTROPHIL (120 h, time 5 day) of the same molecule?
Answer: 8%

Question: And the “NUCLEATED RED BLOOD CELLS” value (120 h, time 5 day)?
Answer: 0 /100WBC

Question: And the “PLATELET COUNT” value (120 h, time 5 day)?
Answer: 1276.33 x10E3/uL

Question: What about the “ALANINE AMINOTRANSFERASE” value (120 h, time 5 day) of the same molecule?
Answer: 63.67 u/L

Question: What about the ALBUMIN (120 h, time 5 day) of the same molecule?
Answer: 4.2 G/DL

Question: And the “ALKALINE PHOSPHATASE” value (120 h, time 5 day)?
Answer: 501 u/L

Question: And the “ASPARTATE AMINOTRANSFERASE” value (120 h, time 5 day)?
Answer: 81.67 u/L

Question: And the “BLOOD UREA NITROGEN” value (120 h, time 5 day)?
Answer: 16 mg/dL

Question: What about the “CARBON DIOXIDE” value (120 h, time 5 day) of the same molecule?
Answer: 26.33 mmol/L

Question: And the CHLORIDE (120 h, time 5 day)?
Answer: 105.33 MEQ/L

Question: And the CHOLESTEROL (120 h, time 5 day)?
Answer: 59.33 mg/dL

Question: What about the “CREATINE PHOSPHOKINASE” value (120 h, time 5 day) of the same molecule?
Answer: 219 u/L

Question: What about the CREATININE (120 h, time 5 day) of the same molecule?
Answer: 0.25 mg/dL

Question: And the GLUCOSE (120 h, time 5 day)?
Answer: 178 mg/dL

Question: What about the “LACTATE DEHYDROGENASE” value (120 h, time 5 day) of the same molecule?
Answer: 91 u/L

Question: And the LIPASE (120 h, time 5 day)?
Answer: 9 u/L

Question: What about the PHOSPHORUS (120 h, time 5 day) of the same molecule?
Answer: 15.37 mg/dL

Question: And the POTASSIUM (120 h, time 5 day)?
Answer: 5.6 MEQ/L

Question: What about the SODIUM (120 h, time 5 day) of the same molecule?
Answer: 146.8 MEQ/L

Question: What about the “TOTAL BILIRUBIN” value (120 h, time 5 day) of the same molecule?
Answer: 0.17 mg/dL

Question: What about the “TOTAL PROTEIN” value (120 h, time 5 day) of the same molecule?
Answer: 6.13 G/DL

Question: And the “URIC ACID” value (120 h, time 5 day)?
Answer: 2.13 mg/dL
